Entries after “also recorded” stand apart in the source; their conditions may differ. Where two headings read alike, the source gives them in different places.
Assays:
[1] = test system: P. falciparum Dd2 (clone B2) asexual blood stage parasites; experiment: P. falciparum Dd2 asexual blood stage SYBR Green-I 72 h proliferation assay (qHTS); format: cell-based, Plasmodium falciparum
[2] = test system: P. falciparum Dd2 Cytb G131S; experiment: SYBR Green ABS proliferation assay, NCGC00374598 selected clone C11; format: cell-based, Plasmodium falciparum; details: for AC50: Plasmodium falciparum
In short: (§1)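 Drug-selected Dd2 clones bearing the cytochrome b mutation were cultured at 37 °C under 5% CO2, 5% O2, 90% N2. Growth was read at 72 h by SYBR Green-I fluorescence, normalized to controls as percent response.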

[3] = test system: P. falciparum Dd2 Cytb V259L; experiment: SYBR Green ABS proliferation assay, NCGC00473217 selected clone F06; format: cell-based, Plasmodium falciparum; details: Plasmodium falciparum
In short: as §1

[4] = test system: P. falciparum Dd2 Cytb A122D; experiment: SYBR Green ABS proliferation assay, NCGC00473217 selected clone F12; format: cell-based, Plasmodium falciparum; details: Plasmodium falciparum
In short: as §1

[5] = test system: P. falciparum Dd2 Cytb F123L; experiment: SYBR Green ABS proliferation assay, NCGC00473217 selected clone G08; format: cell-based, Plasmodium falciparum
In short: as §1

[6] = test system: P. berghei-ANKA-GFP-LucCON liver stage parasites in HepG2-A16-CD81EGFP cells; experiment: P. berghei liver stage Pb-Luc assay, Method 1 (UCSD, 1536-well); format: cell-based, Plasmodium berghei; details: Plasmodium berghei; for AC50: UCSD, read-out: liver stage AC50 (Method 1)
[7] = test system: luciferase-expressing P. berghei liver stage parasites in HepG2 cells; experiment: Inhibition of liver-stage development assay (ILSDA), Method 2 (WRAIR, 96-well); format: cell-based, Plasmodium berghei; details: for AC50: Plasmodium berghei
[8] = in vitro; details: human; for AC50 at 48 h: HepG2 cells, HepG2 AC50 (mammalian cellular toxicity), 48 h compound exposure
[9] = test system: HepG2 cells; experiment: HepG2 mammalian toxicity, CellTiter-Glo, 48 h; details: 48 h compound exposure
[10] = in vitro; details: for half-life: rat
Protocol: (§2) Pharmacokinetic modeling experiments, parallel artificial membrane permeability assay (PAMPA), solubility, and rat liver microsome stability assessment were performed on all synthetic compounds, as previously described[73]–[75].

[11] = test system: P. falciparum Dd2-B2 parasites; experiment: In vitro resistance selection under constant drug pressure; format: cell-based, Plasmodium falciparum; details: for Recrudescence under pressure: 2 × 10^9 parasites, 5 × AC50 (NCGC00473217) or 3 × AC50 (NCGC00374598); for AC50 increase of selected clones: clones from selections with the same compound
Protocol: Recently cloned P. falciparum Dd2-B2 parasites, cultured in duplicate flasks each harboring an inoculum of 2 × 10^9 parasites, were subjected to constant drug pressure from NCGC00473217 at 5 × AC50 or NCGC00374598 at 3 × AC50. […] Clones were then obtained by limiting dilution and three to four clones from each flask were expanded for profiling and sequencing.
Fresh uninfected RBCs (0.5% hematocrit) were added on day 7 and media was changed every other day. […] Resistant parasites were maintained under drug media at a volume of 50 mL until a high parasitemia (> 5%) was achieved. Aliquots of the bulk resistant cultures were frozen in cryovials before cloning by limiting dilution in 96-well plates (seeded at 0.25 or 0.5 parasites/well)[70]. After 3 weeks of cloning, we screened for positive wells by flow cytometry with SYBR Green-stained cells. […] Parasites were harvested by saponin lysis at the trophozoite stage and genomic DNA was extracted using the QIAamp DNA Blood Midi Kit (Qiagen, Germantown, MD)[71].

[12] = Aqueous solubility; format: physicochemical; details: for solubility: aqueous media
Protocol: as §2

[13] = Parallel artificial membrane permeability assay (PAMPA); format: in vitro ADME; details: for PAMPA pH7.4: pH 7.4
Protocol: as §2

[14] = in vitro; details: human, HepG2-A16-CD81EGFP cells, uninfected
[15] = Plasmodium falciparum, DD2, 72 h, SYBR Green 72 h, WT Dd2-B2, read-out: AC50 Log[M] ± SD, Dd2-B2 (parental line) (converted)
[16] = Plasmodium falciparum, DD2, 72 h, SYBR Green 72 h, approximate value in μM, read-out: AC50 [μM], Dd2-B2 (parental line) (converted)
[17] = DD2, NCGC00374598 selected clone, read-out: AC50 Log[M] ± SD, Cytb G131S (converted)
[18] = DD2, Suppl Table 6, read-out: AC50 (mM), Dd2 Cytb G131S
[19] = DD2, NCGC00473217 selected clone, read-out: AC50 Log[M] ± SD, Cytb V259L (converted)
[20] = DD2, Suppl Table 6, read-out: AC50 (mM), Dd2 Cytb V259L
[21] = DD2, NCGC00473217 selected clone, read-out: AC50 Log[M] ± SD, Cytb A122D (converted)
[22] = DD2, Suppl Table 6, read-out: AC50 (mM), Dd2 Cytb A122D
[23] = Plasmodium falciparum, DD2, NCGC00473217 selected clone, read-out: AC50 Log[M] ± SD, Cytb F123L (converted)
[24] = Plasmodium falciparum, DD2, Suppl Table 6, read-out: AC50 (mM), Dd2 Cytb F123L
[25] = DD2, NCGC00374598 selected clone C11, read-out: AC50 [μM], Cytb G131S (converted)
[26] = DD2, NCGC00473217 selected clone F06, read-out: AC50 [μM], Cytb V259L (converted)
[27] = DD2, NCGC00473217 selected clone F12, read-out: AC50 [μM], Cytb A122D (converted)
[28] = Plasmodium falciparum, DD2, NCGC00473217 selected clone G08, highest concentration 29 µM, read-out: AC50 [μM], Cytb F123L (converted)
[29] = HepG2, 48 h, 48 h, firefly luciferase reporter P. berghei line, read-out: ILSDA AC50
[30] = SYBR Green 72 h, approximate value in μM
[31] = HepG2, 48 h, 48 h, read-out: ILSDA AC50 (Method 2)

Structure (SMILES)	AC50 [1, 15]	AC50 [1, 16]	AC50 [2, 17]	AC50 [2, 18]	AC50 [3, 19]	AC50 [3, 20]	AC50 [4, 21]	AC50 [4, 22]	AC50 [5, 23]	AC50 [5, 24]	AC50 [6]	HepG2 AC50 (mammalian cellular toxicity) [9]	AC50 [2, 25]	AC50 [3, 26]	AC50 [4, 27]	AC50 [5, 28]	AC50 [7, 29]	solubility [12]	PAMPA pH7.4 [13]	half-life ([10]; rat liver microsomes)	also measured
CC(=O)Nc1ccc(CN2CCc3nc(C(C)C)nc(-c4ccc(Cl)cc4)c3CC2)cc1 [NCGC00374598]	1.58e-06 M	1.5e-06 M	3.47e-06 M	3.47e-06 M	2.82e-06 M	2.82e-06 M	2.09e-06 M	2.09e-06 M	3.89e-07 M	3.89e-07 M	710 nM	no apparent toxicity									AC50 ([1]; Plasmodium falciparum, DD2, Suppl Table 6, read-out: AC50 (mM), WT (Dd2-B2)): 1.51e-06 M; AC50 ([1]; SYBR Green 72 h, approximate value in μM, read-out: AC50 [μM], Dd2-B2 (parental line) (converted)): 1.51e-06 M; inhibition at 1 µM [6]: > 60%; inhibition at 3 µM [6]: > 90%; Max Resp (signal direction of the dose response) ([7]; Method 2, Decrease = decreasing P. berghei viability with dose, Increase = increasing signal, Inactive = no dose response): Inactive; AC50 ([7]; HepG2, mean, read-out: liver stage AC50 (Method 2)): 500 nM; AC50 [8]: > 20000 nM; half-life ([10]; microsomes): 4 min; Recrudescence under pressure [11]: 36 days; AC50 increase of selected clones [11]: threefold increase
CCCN1C(CC(C)C)=NS(=O)(=O)c2cc(NC(=O)c3cccs3)ccc21 [NCGC00473217]	2.19e-07 M	2.19e-07 M	6.76e-07 M	6.76e-07 M	1.17e-06 M	1.17e-06 M	2.82e-06 M	2.82e-06 M		> 2.9e-05 M	3 nM		6.8e-07 M	1.18e-06 M	2.82e-06 M	> 2.9e-05 M	112 nM	< 1 µg/mL	222 1e-6 cm/s	5 min	AC50 [μM], Cytb F123L ([5]; NCGC00473217 selected clone G08, highest concentration 29 µM): greater than the maximum concentration tested; AC50 ([5]; NCGC00473217 selected clone G08, highest concentration 29 µM, read-out: AC50 [μM], Cytb F123L (converted)): > 2.9e-05 M; IC50 shift, F123L clone ([5]; versus parental): > 500 fold; inhibition at 1 µM [6]: > 90%; inhibition at 3 µM [6]: > 95%; Activity direction (Decrease / Inactive) ([7]; P. berghei liver stage, Method 2, dose response): Decrease; AC50 ([7]; HepG2, P. berghei liver stage, Method 2, dose response, read-out: Log AC50 (converted)): 112 nM; Recrudescence under pressure [11]: 14 to 17 days; AC50 increase of selected clones [11]: 10 to 60 fold; viability at 66 h [14]: 106%
CCCN1C(c2ccccc2)=NS(=O)(=O)c2cc(NC(=O)c3ccc(F)cc3)ccc21 [NCGC00532331]	8.91e-07 M	8.94e-07 M	7.08e-07 M		2.34e-06 M		1.86e-06 M		3.31e-06 M			Neither compound was cytotoxic	7.1e-07 M	2.33e-06 M	1.85e-06 M	3.3e-06 M	48 nM	< 1 µg/mL	896 1e-6 cm/s	> 30 min	AC50 [μM], Dd2-B2 (parental line) [1, 30]: sub-micromolar; AC50 [μM], Cytb G131S ([2]; NCGC00374598 selected clone C11): maintained potency; AC50 [7, 31]: < 50 nM; AC50 at 48 h [8]: > 20000 nM; Aqueous Solubility [12]: poor aqueous solubility; PAMPA permeability [13]: good PAMPA permeability; also recorded: favorable; RLMS T1/2 ([10]; rat liver microsomes): favorable
CCCN1C(c2ccccc2)=NS(=O)(=O)c2cc(NC(=O)c3cccs3)ccc21 [NCGC00532332]	5.89e-07 M	5.86e-07 M	8.51e-07 M		4.27e-06 M		1.51e-06 M		2e-06 M			Neither compound was cytotoxic	8.61e-07 M	4.31e-06 M	1.5e-06 M	2e-06 M	39 nM	< 1 µg/mL	714 1e-6 cm/s	22.6 min	AC50 [μM], Dd2-B2 (parental line) [1, 30]: sub-micromolar; AC50 [7, 31]: < 50 nM; AC50 at 48 h [8]: > 20000 nM; Aqueous Solubility [12]: poor aqueous solubility; PAMPA permeability [13]: high permeability; also recorded: favorable; RLMS T1/2 ([10]; rat liver microsomes): favorable

— paper PMC7822874, “Chemoprotective antimalarials identified through quantitative high-throughput screening of Plasmodium blood and liver stage parasites” (Scientific Reports, 2021)
